These results are taken from patent US8796253B2, “Heteroaryl substituted pyrazole derivatives useful for treating hyper-proliferative disorders and diseases associated with angiogenesis” (Bayer Intellectual Property GmbH, priority 2007, dated 2014).

One may read the IC50 as the midpoint of a concentration-inhibition curve. A higher IC50 goes with lower potency.

In the first experiment the test system is HCT-116 cells stably transfected with a Luciferase reporter gene under the control of HIF-responsive element. The experiment in a line: HIF-Luciferase Assay. The conditions noted are these: Homo sapiens, HCT-116, HIF-Luciferase Assay, HCT-116 reporter cells, overnight at 1% oxygen; group >10, unit inferred. Format: cell-based. The protocol: HCT-116 cells stably transfected with a Luciferase reporter gene under the control of HIF-responsive element were plated in white 96- or 384-well plates at 30,000 or 5,000 cells/well, respectively, in 50 μL/well media (RPMI with 10% fetal bovine serum and 100 μg/mL Hygromycin). Cells were incubated overnight at 37° C. in a humidified incubator containing 5% CO2 under normal oxygen. The next day test compounds were added to the wells at various concentrations (0-10 μM, 0.1% final DMSO concentration) and placed in a hypoxic chamber overnight at 1% oxygen. Following the exposure to hypoxic conditions, 50 μL/well of Bright Glo reagent (Promega, Wisconsin, USA) was added to the wells and luminescence was measured after 5 min. Cells incubated under normal oxygen levels were used as background control. […] Compounds that have IC50 values between 1 μM and 10 μM include those of Examples 8, 16, 38, 39, 40, 41, 42, 43, 47, 48, 53, 54, 56, 57, 66, 69, and 72.
With `Cc1ccc(Cn2nc(C3=NC(C(C)C)CO3)cc2C)cc1` (stereo not shown) [Example 71, 4-isopropyl-2-[5-methyl-1-(4-methylbenzyl)-1H-pyrazol-3-yl]-4,5-dihydro-1,3-oxazole], the IC50 is more than 10 µM.
On the same count and under the same terms, for `Cc1ccc(Cn2nc(-c3nc4cc(C(C)(C)c5ccccc5)ccc4o3)cc2C)cc1` [Example 32, 2-[5-methyl-1-(4-methylbenzyl)-1H-pyrazol-3-yl]-5-(1-methyl-1-phenylethyl)-1,3-benzoxazole] the value was more than 10 µM; for `Cc1ccc(Cn2nc(-c3nc4cc(Cc5ccccc5)ccc4o3)cc2C)cc1` [Example 33, 5-benzyl-2-[5-methyl-1-(4-methylbenzyl)-1H-pyrazol-3-yl]-1,3-benzoxazole], more than 10 µM.

Staying with this experiment, now noted: Homo sapiens, HCT-116, HIF-Luciferase Assay, HCT-116 reporter cells, overnight at 1% oxygen; individual values.
In the case of `Cc1ccc(Cn2nc(-c3nc4ccc(-c5ccc(Cl)cc5)cc4[nH]3)cc2C)cc1` [Example 64, 6-(4-chlorophenyl)-2-[5-methyl-1-(4-methylbenzyl)-1H-pyrazol-3-yl]-1H-benzimidazole], it took 0.003 µM to reach half-maximal inhibition (IC50).
The molecule `Cc1ccc(Cn2nc(-c3nc(-c4ccc(-c5ccccc5)cc4)c[nH]3)cc2C)cc1` [Example 67, 3-(4-biphenyl-4-yl-1H-imidazol-2-yl)-5-methyl-1-(4-methylbenzyl)-1H-pyrazole] showed an IC50 of 0.008 µM.
Same read-out and setting: as for `Cc1ccc(Cn2nc(-c3nc(-c4ccc(C(C)(C)F)cc4)no3)cc2C)cc1` [Example 103, 3-[4-(1-fluoro-1-methylethyl)phenyl]-5-[5-methyl-1-(4-methylbenzyl)-1H-pyrazol-3-yl]-1,2,4-oxadiazole], the figure is 0.01 µM; as for `Cc1ccc(Cn2nc(-c3nc(-c4ccc(C(C)(C)C)cc4)co3)cc2C)cc1` [Example 77, 4-(4-tert-Butylphenyl)-2-[5-methyl-1-(4-methylbenzyl)-1H-pyrazol-3-yl]-1,3-oxazole], 0.02 µM.
For the molecule `Cc1ccc(Cn2nc(-c3nc(-c4ccc(OC(F)(F)F)cc4)no3)cc2C)cc1` [Example 1], the IC50 was 0.03 µM.
Same read-out and setting: for `Cc1cc(-c2nc(-c3ccc(OC(F)(F)F)cc3)no2)nn1Cc1ccc(C#N)cc1` [Example 121, 4-[(5-methyl-3-3-[4-(trifluoromethoxy)phenyl]-1,2,4-oxadiazol-5-yl-1H-pyrazol-1-yl)methyl]benzonitrile] the value was 0.03 µM; for `Cc1ccc(Cn2nc(-c3nc(-c4ccc(N5CCCC5=O)cc4)no3)cc2C)cc1` [Example 24, 1-(4-{5-[5-Methyl-1-(4-methylbenzyl)-1H-pyrazol-3-yl]-1,2,4-oxadiazol-3-yl}phenyl)pyrrolidin-2-one], 0.08 µM.
Molecule `Cc1ccc(Cn2nc(-c3nc(-c4ccc(SC(F)(F)F)cc4)no3)cc2C)cc1` [Example 105, 5-[5-methyl-1-(4-methylbenzyl)-1H-pyrazol-3-yl]-3-4-[(trifluoromethyl)sulfanyl]phenyl-1,2,4-oxadiazole] showed an IC50 of 0.03 µM.

Staying with this experiment, now noted: Homo sapiens, HCT-116, HIF-Luciferase Assay, HCT-116 reporter cells, overnight at 1% oxygen; potency groups.
On to `Cc1ccc(Cn2nc(-c3nc(-c4ccccc4)no3)cc2C)cc1` [Example 9, 5-[5-methyl-1-(4-methylbenzyl)-1H-pyrazol-3-yl]-3-phenyl-1,2,4-oxadiazole], for which the IC50 is not above 1 µM.
Consider `Cc1ccc(Cn2nc(-c3nc4ccc(C5CCCCC5)cc4[nH]3)cc2C)cc1` [Example 51, 6-cyclohexyl-2-[5-methyl-1-(4-methylbenzyl)-1H-pyrazol-3-yl]-1H-benzimidazole], for which the IC50 was not above 1 µM.
In turn, `Cc1ccc(Cn2nc(-c3nc(-c4ccc(C5CCCCC5)cc4)no3)cc2C)cc1` [Example 11, 3-(4-cyclohexylphenyl)-5-[5-methyl-1-(4-methylbenzyl)-1H-pyrazol-3-yl]-1,2,4-oxadiazole] gave an IC50 not above 1 µM.
Same read-out and setting: for `Cc1ccc(Cn2nc(-c3nc4ccc(C(C)(C)C)cc4[nH]3)cc2C)cc1` [Example 43, 6-tert-butyl-2-[5-methyl-1-(4-methylbenzyl)-1H-pyrazol-3-yl]-1H-benzimidazole] the value was 1 to 10 µM; for `Cc1ccc(Cn2nc(-c3nc4ccc(-c5ccc(Cl)cc5)cc4[nH]3)cc2C)cc1` [Example 64, 6-(4-chlorophenyl)-2-[5-methyl-1-(4-methylbenzyl)-1H-pyrazol-3-yl]-1H-benzimidazole], not above 1 µM; for `Cc1ccc(Cn2nc(-c3nc(-c4ccc(N5CCOC5=O)cc4)no3)cc2C)cc1` [Example 25, 3-(4-{5-[5-methyl-1-(4-methylbenzyl)-1H-pyrazol-3-yl]-1,2,4-oxadiazol-3-yl}phenyl)-1,3-oxazolidin-2-one], not above 1 µM.
As for `Cc1ccc(Cn2nc(-c3nc4cc(-c5cccc(F)c5)ccc4o3)cc2C)cc1` [Example 34, 5-(3-fluorophenyl)-2-[5-methyl-1-(4-methylbenzyl)-1H-pyrazol-3-yl]-1,3-benzoxazole], the IC50 was not above 1 µM.
In turn, `Cc1ccc(Cn2nc(-c3nc4ccc(Cl)cc4[nH]3)cc2C)cc1` [Example 41, 6-chloro-2-[5-methyl-1-(4-methylbenzyl)-1H-pyrazol-3-yl]-1H-benzimidazole] yielded an IC50 of 1 to 10 µM.
On the same count and under the same terms, for `Cc1ccc(Cn2nc(-c3nc4cc5cn[nH]c5cc4[nH]3)cc2C)cc1` [Example 48, 6-[5-methyl-1-(4-methylbenzyl)-1H-pyrazol-3-yl]-1,7-dihydroimidazo[4,5-f]indazole] the value was 1 to 10 µM; for `Cc1ccc(Cn2nc(-c3nc(-c4ccc(-c5ccccc5)cc4)c[nH]3)cc2C)cc1` [Example 67, 3-(4-biphenyl-4-yl-1H-imidazol-2-yl)-5-methyl-1-(4-methylbenzyl)-1H-pyrazole], not above 1 µM; for `Cc1ccc(Cn2nc(-c3nc(-c4ccc(C(F)(F)F)cc4)no3)cc2C)cc1` [Example 7, 5-[5-methyl-1-(4-methylbenzyl)-1H-pyrazol-3-yl]-3-[4-(trifluoromethyl)phenyl]-1,2,4-oxadiazole], not above 1 µM.
Same read-out and setting: for `Cc1ccc(Cn2nc(-c3nc4ccc(Oc5ccccc5)cc4o3)cc2C)cc1` [Example 30, 2-[5-methyl-1-(4-methylbenzyl)-1H-pyrazol-3-yl]-6-phenoxy-1,3-benzoxazole] the value was not above 1 µM; for `Cc1ccc(Cn2nc(-c3nc4cc(-c5cccc(Cl)c5)ccc4o3)cc2C)cc1` [Example 36, 5-(3-chlorophenyl)-2-[5-methyl-1-(4-methylbenzyl)-1H-pyrazol-3-yl]-1,3-benzoxazole], not above 1 µM; for `COCC(=O)Nc1ccc(-c2noc(-c3cc(C)n(Cc4ccc(C)cc4)n3)n2)cc1` [Example 27, 2-methoxy-N-(4-{5-[5-methyl-1-(4-methylbenzyl)-1H-pyrazol-3-yl]-1,2,4-oxadiazol-3-yl}phenyl)acetamide], not above 1 µM.
Same read-out and setting: for `Cc1ccc(Cn2nc(-c3nc(-c4ccc(C(C)(C)C)cc4)co3)cc2C)cc1` [Example 77, 4-(4-tert-Butylphenyl)-2-[5-methyl-1-(4-methylbenzyl)-1H-pyrazol-3-yl]-1,3-oxazole] the value was not above 1 µM.
Turning to `Cc1ccc(Cn2nc(-c3nc(-c4ccc(OC(F)(F)F)cc4)c[nH]3)cc2C)cc1` [Example 65, 5-Methyl-1-(4-methylbenzyl)-3-{4-[4-(trifluoromethoxy)phenyl]-1H-imidazol-2-yl}-1H-pyrazole], the IC50 was not above 1 µM.
Regarding `Cc1ccc(Cn2nc(-c3nc(-c4ccc(OC(F)(F)F)cc4)no3)cc2C)cc1` [Example 1], the IC50 was not above 1 µM.
On to `Cc1ccc(Cn2nc(-c3nc(-c4ccc(N5CCCC5=O)cc4)no3)cc2C)cc1` [Example 24, 1-(4-{5-[5-Methyl-1-(4-methylbenzyl)-1H-pyrazol-3-yl]-1,2,4-oxadiazol-3-yl}phenyl)pyrrolidin-2-one], for which the IC50 is not above 1 µM.
The same measure, in the same setting: for `Cc1ccc(Cn2nc(-c3nc(-c4ccc(-c5ccc(OC(F)(F)F)cc5)cc4)no3)cc2C)cc1` [Example 5, 5-[5-methyl-1-(4-methylbenzyl)-1H-pyrazol-3-yl]-3-[4′-(trifluoromethoxy)biphenyl-4-yl]-1,2,4-oxadiazole] the value was not above 1 µM; for `Cc1ccc(Cn2nc(-c3nc(-c4ccccc4)c(-c4ccccc4)[nH]3)cc2C)cc1` [Example 66, 3-(4,5-diphenyl-1H-imidazol-2-yl)-5-methyl-1-(4-methylbenzyl)-1H-pyrazole], 1 to 10 µM.
`Cc1ccc(Cn2nc(-c3nc4cc5c(cc4[nH]3)OC(F)(F)O5)cc2C)cc1` [Example 55, 2,2-difluoro-6-[5-methyl-1-(4-methylbenzyl)-1H-pyrazol-3-yl]-5H-[1,3]dioxolo[4,5-f]benzimidazole] registered an IC50 not above 1 µM.
As to `Cc1ccc(Cn2nc(-c3nc(-c4ccc(Br)cc4)no3)cc2C)cc1` [Example 3, 3-(4-bromophenyl)-5-[5-methyl-1-(4-methylbenzyl)-1H-pyrazol-3-yl]-1,2,4-oxadiazole], the IC50 is not above 1 µM.
On the same count and under the same terms, for `Cc1ccc(C(C)n2nc(-c3nc(-c4ccc(Br)cc4)no3)cc2C)cc1` (stereo not shown) [Example 8, 3-(4-bromophenyl)-5-{5-methyl-1-[1-(4-methylphenyl)ethyl]-1H-pyrazol-3-yl}-1,2,4-oxadiazole] the value was 1 to 10 µM.
Turning to `Cc1ccc(Cn2nc(-c3nc(-c4ccc(N5CCOCC5=O)cc4)no3)cc2C)cc1` [Example 26, 4-(4-{5-[5-methyl-1-(4-methylbenzyl)-1H-pyrazol-3-yl]-1,2,4-oxadiazol-3-yl}phenyl)morpholin-3-one], the IC50 is not above 1 µM.
The same measure, in the same setting: for `Cc1ccc(Cn2nc(-c3nc4ccccc4o3)cc2C)cc1` [Example 31, 2-[5-methyl-1-(4-methylbenzyl)-1H-pyrazol-3-yl]-1,3-benzoxazole] the value was not above 1 µM; for `Cc1ccc(Cn2nc(-c3nc4ccccc4[nH]3)cc2C)cc1` [Example 38, 2-[5-methyl-1-(4-methylbenzyl)-1H-pyrazol-3-yl]-1H-benzimidazole], 1 to 10 µM; for `Cc1ccc(Cn2nc(C3=NC(Cc4ccc(Cl)cc4)CO3)cc2C)cc1` (stereo not shown) [Example 72, 4-(4-chlorobenzyl)-2-[5-methyl-1-(4-methylbenzyl)-1H-pyrazol-3-yl]-4,5-dihydro-1,3-oxazole], 1 to 10 µM.
Molecule `Cc1ccc(Cn2nc(-c3nc(-c4ccc(F)cc4)no3)cc2C)cc1` [Example 10, 3-(4-fluorophenyl)-5-[5-methyl-1-(4-methylbenzyl)-1H-pyrazol-3-yl]-1,2,4-oxadiazole] displayed an IC50 not above 1 µM.
Still for that read-out and setting: for `Cc1ccc(Cn2nc(-c3nc(-c4ccncc4)no3)cc2C)cc1` [Example 14, 4-{5-[5-Methyl-1-(4-methylbenzyl)-1H-pyrazol-3-yl]-1,2,4-oxadiazol-3-yl}pyridine] the value was not above 1 µM.
